According to patent publication US7745437B2, “Compounds and compositions as protein kinase inhibitors” (IRM LLC, priority 2004, dated 2010):

What was measured:
Assay in all cases: Upstate KinaseProfiler radio-enzymatic filter binding assay
Type in all cases: biochemical
PDGFRα = biological target: T1, PDGFRα (Homo sapiens, UniProt P16234); settings: at a concentration of 10 μM; read-out: percentage inhibition of PDGFRα
T1 construct: purchased Upstate
Description: (§1) Compounds of the invention are assessed for their ability to inhibit individual members of the kinase panel. The compounds are tested in duplicates at a final concentration of 10 μM following this generic protocol. Note that the kinase buffer composition and the substrates vary for the different kinases included in the “Upstate KinaseProfiler™” panel. Kinase buffer (2.5 μL, 10×—containing MnCl2 when required), active kinase (0.001-0.01 Units; 2.5 μL), specific or Poly(Glu4-Tyr) peptide (5-500 μM or 0.01 mg/ml) in kinase buffer and kinase buffer (50 μM; 5 μL) are mixed in an eppendorf on ice, A Mg/ATP mix (10 μL; 67.5 (or 33.75) mM MgCl2, 450 (or 225) μM ATP and 1 μCi/μl [γ-^32P]-ATP (3000 Ci/mmol)) is added and the reaction is incubated at about 30° C. for about 10 minutes. The reaction mixture is spotted (20 μL) onto a 2 cm×2 cm P81 (phosphocellulose, for positively charged peptide substrates) or Whatman No. 1 (for Poly (Glu4-Tyr) peptide substrate) paper square. The assay squares are washed 4 times, for 5 minutes each, with 0.75% phosphoric acid and washed once with acetone for 5 minutes. The assay squares are transferred to a scintillation vial, 5 ml scintillation cocktail are added and ^32P incorporation (cpm) to the peptide substrate is quantified with a Beckman scintillation counter. Percentage inhibition is calculated for each reaction.

SAPK2α = biological target: T2, SAPK2α (Homo sapiens, UniProt Q16539); settings: at a concentration of 10 μM; read-out: percentage inhibition of SAPK2α
T2 construct: purchased Upstate
T2 sequence (Q16539 whole entry): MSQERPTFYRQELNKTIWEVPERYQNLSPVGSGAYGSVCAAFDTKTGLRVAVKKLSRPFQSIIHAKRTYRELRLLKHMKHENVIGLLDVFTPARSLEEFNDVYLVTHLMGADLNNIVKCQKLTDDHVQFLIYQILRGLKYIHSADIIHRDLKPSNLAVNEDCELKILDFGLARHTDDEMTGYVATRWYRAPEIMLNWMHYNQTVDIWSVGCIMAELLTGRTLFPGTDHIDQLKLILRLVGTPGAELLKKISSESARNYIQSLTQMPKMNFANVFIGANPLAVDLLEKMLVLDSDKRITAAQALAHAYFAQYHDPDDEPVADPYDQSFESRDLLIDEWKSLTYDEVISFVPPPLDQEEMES
Description: as §1

lck = biological target: T3, lck (Homo sapiens, UniProt P06239); settings: at a concentration of 10 μM; read-out: percentage inhibition of lck
T3 construct: purchased Upstate
T3 sequence (P06239 whole entry): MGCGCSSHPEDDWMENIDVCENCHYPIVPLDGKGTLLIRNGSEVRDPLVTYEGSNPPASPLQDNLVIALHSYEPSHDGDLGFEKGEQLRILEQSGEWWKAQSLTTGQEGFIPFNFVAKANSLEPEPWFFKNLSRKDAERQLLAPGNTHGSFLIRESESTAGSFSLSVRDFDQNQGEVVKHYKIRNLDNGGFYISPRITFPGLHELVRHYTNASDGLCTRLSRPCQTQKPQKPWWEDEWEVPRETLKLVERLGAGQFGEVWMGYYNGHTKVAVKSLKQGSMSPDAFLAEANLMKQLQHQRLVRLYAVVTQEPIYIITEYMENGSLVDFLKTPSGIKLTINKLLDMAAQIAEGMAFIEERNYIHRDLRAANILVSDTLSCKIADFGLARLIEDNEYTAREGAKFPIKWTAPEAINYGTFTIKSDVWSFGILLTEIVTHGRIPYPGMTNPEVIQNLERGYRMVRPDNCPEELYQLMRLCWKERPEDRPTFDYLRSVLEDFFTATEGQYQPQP
Description: as §1

JNK2α2 = biological target: T4, JNK2α2 (Homo sapiens, UniProt P45984); settings: at a concentration of 10 μM; read-out: percentage inhibition of JNK2α2
T4 construct: purchased Upstate
T4 sequence (P45984 whole entry): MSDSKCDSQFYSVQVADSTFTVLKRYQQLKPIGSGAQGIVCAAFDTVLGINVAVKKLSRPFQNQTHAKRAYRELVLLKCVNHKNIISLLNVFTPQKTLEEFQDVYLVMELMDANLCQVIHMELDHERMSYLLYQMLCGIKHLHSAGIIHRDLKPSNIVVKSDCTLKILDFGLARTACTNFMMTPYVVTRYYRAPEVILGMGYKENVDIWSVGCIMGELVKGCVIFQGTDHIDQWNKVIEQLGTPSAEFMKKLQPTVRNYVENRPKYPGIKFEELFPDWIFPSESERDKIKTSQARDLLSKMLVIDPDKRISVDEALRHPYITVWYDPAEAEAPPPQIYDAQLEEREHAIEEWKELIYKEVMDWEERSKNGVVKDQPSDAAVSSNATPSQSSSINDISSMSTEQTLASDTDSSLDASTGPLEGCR
Description: as §1

SAPK2β = biological target: T5, SAPK2β (Homo sapiens, UniProt Q15759); settings: at a concentration of 10 μM; read-out: percentage inhibition of SAPK2β
T5 construct: purchased Upstate
Description: as §1

Tie2 = biological target: T6, Tie2 (Homo sapiens, UniProt Q02763); settings: at a concentration of 10 μM; read-out: percentage inhibition of Tie2
T6 construct: purchased Upstate
T6 sequence (Q02763 23-1124): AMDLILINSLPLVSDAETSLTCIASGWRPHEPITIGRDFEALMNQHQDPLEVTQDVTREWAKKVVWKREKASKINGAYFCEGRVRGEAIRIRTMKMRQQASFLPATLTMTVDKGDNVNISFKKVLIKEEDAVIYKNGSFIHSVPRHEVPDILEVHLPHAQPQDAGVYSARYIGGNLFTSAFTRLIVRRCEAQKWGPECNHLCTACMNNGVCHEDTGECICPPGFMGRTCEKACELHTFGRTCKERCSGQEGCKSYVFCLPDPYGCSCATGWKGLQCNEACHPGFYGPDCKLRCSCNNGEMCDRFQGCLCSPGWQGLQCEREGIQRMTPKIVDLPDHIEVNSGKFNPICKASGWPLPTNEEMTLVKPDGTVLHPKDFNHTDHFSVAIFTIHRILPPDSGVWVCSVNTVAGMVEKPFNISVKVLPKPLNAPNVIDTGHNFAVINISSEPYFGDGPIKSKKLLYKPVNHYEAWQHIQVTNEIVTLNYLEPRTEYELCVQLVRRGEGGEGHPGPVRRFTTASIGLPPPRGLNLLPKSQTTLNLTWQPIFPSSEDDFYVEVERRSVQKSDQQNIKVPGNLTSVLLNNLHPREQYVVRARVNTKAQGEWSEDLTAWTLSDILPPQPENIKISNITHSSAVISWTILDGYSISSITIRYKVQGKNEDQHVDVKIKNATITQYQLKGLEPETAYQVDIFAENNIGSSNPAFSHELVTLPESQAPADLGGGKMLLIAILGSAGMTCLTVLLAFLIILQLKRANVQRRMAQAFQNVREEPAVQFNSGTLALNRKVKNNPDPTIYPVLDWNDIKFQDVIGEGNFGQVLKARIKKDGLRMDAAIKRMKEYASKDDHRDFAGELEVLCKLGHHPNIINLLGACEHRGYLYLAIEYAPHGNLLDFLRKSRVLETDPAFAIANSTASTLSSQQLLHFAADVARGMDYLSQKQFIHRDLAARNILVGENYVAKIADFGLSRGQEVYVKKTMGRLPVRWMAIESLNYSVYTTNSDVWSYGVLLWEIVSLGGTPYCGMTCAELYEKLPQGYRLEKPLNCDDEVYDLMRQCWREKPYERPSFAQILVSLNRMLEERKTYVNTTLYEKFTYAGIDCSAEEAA
Description: as §1

wild-type Abl = biological target: T7, wild-type Abl (Homo sapiens, UniProt P00519); settings: at a concentration of 10 μM; read-out: percentage inhibition of wild-type Abl
T7 construct: purchased Upstate
Description: as §1

TrkB = biological target: T8, TrkB (Homo sapiens, UniProt Q16620); settings: at a concentration of 10 μM; read-out: percentage inhibition of TrkB
T8 construct: purchased Upstate
T8 sequence (Q16620 32-822): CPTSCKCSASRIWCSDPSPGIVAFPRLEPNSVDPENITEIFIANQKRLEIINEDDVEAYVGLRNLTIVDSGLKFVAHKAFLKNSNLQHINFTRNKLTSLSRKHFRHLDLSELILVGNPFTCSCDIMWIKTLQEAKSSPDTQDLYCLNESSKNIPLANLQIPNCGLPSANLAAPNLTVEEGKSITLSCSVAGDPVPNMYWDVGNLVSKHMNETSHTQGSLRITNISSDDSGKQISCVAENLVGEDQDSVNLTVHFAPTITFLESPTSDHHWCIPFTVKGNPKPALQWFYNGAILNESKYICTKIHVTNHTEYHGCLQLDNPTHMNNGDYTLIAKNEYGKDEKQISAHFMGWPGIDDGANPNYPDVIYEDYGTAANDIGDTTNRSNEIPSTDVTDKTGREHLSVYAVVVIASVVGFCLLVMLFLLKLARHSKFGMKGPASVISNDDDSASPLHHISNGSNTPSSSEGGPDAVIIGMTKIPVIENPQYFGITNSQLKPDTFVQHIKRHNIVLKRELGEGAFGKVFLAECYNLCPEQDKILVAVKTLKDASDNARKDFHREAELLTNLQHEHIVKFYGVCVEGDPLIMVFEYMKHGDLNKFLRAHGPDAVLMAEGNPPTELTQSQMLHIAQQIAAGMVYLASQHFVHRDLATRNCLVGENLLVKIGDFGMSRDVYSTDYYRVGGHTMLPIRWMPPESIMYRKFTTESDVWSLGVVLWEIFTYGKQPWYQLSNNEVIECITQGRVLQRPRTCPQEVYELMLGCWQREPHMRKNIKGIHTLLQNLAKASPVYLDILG
Description: as §1

c-SRC = biological target: T9, c-SRC (Homo sapiens, UniProt P12931); settings: at a concentration of 10 μM; read-out: percentage inhibition of c-SRC
T9 construct: purchased Upstate
T9 sequence (P12931 whole entry): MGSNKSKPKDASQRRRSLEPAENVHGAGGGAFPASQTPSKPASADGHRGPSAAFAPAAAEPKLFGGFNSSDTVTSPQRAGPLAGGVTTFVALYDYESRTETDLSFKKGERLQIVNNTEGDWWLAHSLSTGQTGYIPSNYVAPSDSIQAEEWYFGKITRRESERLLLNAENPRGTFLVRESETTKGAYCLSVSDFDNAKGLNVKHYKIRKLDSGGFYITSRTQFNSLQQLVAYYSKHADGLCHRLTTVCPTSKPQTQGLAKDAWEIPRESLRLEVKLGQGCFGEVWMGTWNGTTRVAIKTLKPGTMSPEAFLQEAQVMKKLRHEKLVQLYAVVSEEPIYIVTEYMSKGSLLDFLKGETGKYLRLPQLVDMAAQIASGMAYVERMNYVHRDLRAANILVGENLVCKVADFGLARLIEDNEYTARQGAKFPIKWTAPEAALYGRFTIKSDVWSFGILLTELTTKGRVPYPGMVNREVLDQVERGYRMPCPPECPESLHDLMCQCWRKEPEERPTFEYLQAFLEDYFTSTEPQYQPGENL
Description: as §1

c-RAF = biological target: T10, c-RAF (Homo sapiens, UniProt P04049); settings: at a concentration of 10 μM; read-out: percentage inhibition of c-RAF
T10 construct: purchased Upstate
Description: as §1

MKK6 = biological target: T11, MKK6 (Homo sapiens, UniProt P52564); settings: at a concentration of 10 μM; read-out: percentage inhibition of MKK6
T11 construct: purchased Upstate
T11 sequence (P52564 1-334): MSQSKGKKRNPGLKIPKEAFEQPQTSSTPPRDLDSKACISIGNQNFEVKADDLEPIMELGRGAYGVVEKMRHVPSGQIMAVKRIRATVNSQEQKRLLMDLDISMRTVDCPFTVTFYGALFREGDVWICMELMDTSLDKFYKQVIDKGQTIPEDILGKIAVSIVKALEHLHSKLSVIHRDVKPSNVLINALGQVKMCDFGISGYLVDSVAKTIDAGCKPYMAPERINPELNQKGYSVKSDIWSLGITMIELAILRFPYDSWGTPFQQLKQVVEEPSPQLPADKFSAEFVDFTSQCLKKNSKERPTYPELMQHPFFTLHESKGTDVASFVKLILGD
Description: as §1

T1 sequence (P16234 24-1089): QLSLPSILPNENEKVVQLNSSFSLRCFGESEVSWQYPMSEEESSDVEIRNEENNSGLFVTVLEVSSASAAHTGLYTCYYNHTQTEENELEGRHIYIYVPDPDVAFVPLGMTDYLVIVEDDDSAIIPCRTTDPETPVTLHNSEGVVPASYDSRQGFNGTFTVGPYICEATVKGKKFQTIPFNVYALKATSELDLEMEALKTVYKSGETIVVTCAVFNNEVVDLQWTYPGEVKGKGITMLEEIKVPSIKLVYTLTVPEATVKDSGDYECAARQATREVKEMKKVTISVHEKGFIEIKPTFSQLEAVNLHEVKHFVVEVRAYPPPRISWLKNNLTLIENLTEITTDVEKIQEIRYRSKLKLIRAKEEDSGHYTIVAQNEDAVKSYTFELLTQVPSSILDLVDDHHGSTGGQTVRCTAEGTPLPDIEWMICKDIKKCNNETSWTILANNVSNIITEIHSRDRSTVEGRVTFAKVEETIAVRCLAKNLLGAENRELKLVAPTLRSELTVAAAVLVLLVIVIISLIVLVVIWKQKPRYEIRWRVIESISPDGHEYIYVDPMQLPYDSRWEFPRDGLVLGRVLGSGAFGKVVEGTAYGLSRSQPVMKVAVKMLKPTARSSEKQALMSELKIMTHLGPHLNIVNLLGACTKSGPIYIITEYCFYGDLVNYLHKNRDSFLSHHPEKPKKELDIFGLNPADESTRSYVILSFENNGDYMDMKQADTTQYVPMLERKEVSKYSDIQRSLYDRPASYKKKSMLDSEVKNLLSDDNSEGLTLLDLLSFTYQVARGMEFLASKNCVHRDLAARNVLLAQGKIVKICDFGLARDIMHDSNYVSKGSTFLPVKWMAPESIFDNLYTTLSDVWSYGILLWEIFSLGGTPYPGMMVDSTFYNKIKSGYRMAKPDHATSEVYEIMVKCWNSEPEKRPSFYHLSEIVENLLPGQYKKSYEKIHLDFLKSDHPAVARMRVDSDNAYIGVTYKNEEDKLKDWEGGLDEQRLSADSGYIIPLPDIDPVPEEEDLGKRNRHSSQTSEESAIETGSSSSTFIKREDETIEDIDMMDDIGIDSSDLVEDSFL

- inhibition at 10 µM (PDGFRα): 97%
- inhibition at 10 µM (SAPK2α): 100%
- inhibition at 10 µM (lck): 100%
- inhibition at 10 µM (JNK2α2): 97%
- inhibition at 10 µM (SAPK2β): 100%
- inhibition at 10 µM (Tie2): 99%
- inhibition at 10 µM (wild-type Abl): 97%
- inhibition at 10 µM (TrkB): 97%
- inhibition at 10 µM (c-SRC): 99%
- inhibition at 10 µM (c-RAF): 100%
- inhibition at 10 µM (MKK6): 100%
SMILES: Cc1ccc(NC(=O)c2cccc(C(F)(F)F)c2)cc1Nc1nccn1-c1cc(NCCN2CCOCC2)ncn1 [Compound 3, N-(4-Methyl-3-{1-[6-(2-morpholin-4-yl-ethylamino)-pyrimidin-4-yl]-1H-imidazol-2-ylamino}-phenyl)-3-trifluoromethyl-benzamide]
